Where a name gives a salt, the structure may show the parent alone.
Tests used:
Format in all cases: cell-based, human
[1] = tested on: KIM-1 mRNA; assay: KIM-1 mRNA qRT-PCR in hRPTECs; parameters: key to Upregulation of KIM-1 hRPTECs R: +: statistically significant increase; −: no significant increase; conditions: mRNA levels; 72 h time point
Experimental: HK-2 cells (ATCC CRL-2190; Manassas, VA) were maintained in DMEM/F12 (Life Technologies; Sydney, NSW, Australia) supplemented with 5 μg/mL insulin, 5 μg/mL transferrin, 5 ng/mL sodium selenite (ITS; Roche; […] (passage 2) and culture kits were purchased from Lonza. […] were maintained in Renal Epithelial Cell BulletKitTM (CC-3190, Lonza) at 37°C and 5% CO2 atmosphere. Cells were passaged to 96-well plates with a density of 4000 cells/well. After 24 h culture, compounds with different concentration series were added into each well and incubated for 4, 24, 48, and 72 h. HK-2 and […] were treated with compounds for 4, 24, 48, and 72 h, then the cells were lysed and the RNA reverse transcribed with the TaqMan® Gene Expression Cells-to-CTTM Kit (Life Technologies) according to the manufacturer's instructions. […] Hs00273334_m1), Lcn2 (NGAL; Hs01008571_m1), and Csf1 (M-CSF; Hs00174164_m1). All probes span an exon-exon junction. The real-time quantitative reverse transcription PCR (qRT-PCR) was performed in a 10 μl final reaction mixture using a ViiA 7TM system (Applied Biosystems®, Sydney, NSW, Australia) based on the following thermo cycling conditions: 10 min at 95°C for one cycle, 15 sec at 95°C, 60 sec at 60°C for 40 cycles. The ViiA 7TM software was used for data analysis with Hprt1 expression used for normalization. All assays were performed at least three times, with at least two technical replicates in each assay.

[2] = tested on: NGAL; assay: NGAL protein ELISA in freshly isolated hPT cells; conditions: for NGAL protein upregulation in hPT cells: high doses, within 24 h; for Upregulation of NGAL hPT P(L): protein levels in cell lysates, table title says 72 h time point
Experimental: (§1) hPT cells were derived from whole human kidneys procured by the International Institute for the Advancement of Medicine (Edison, NJ). All tissues were scored by a pathologist as normal (i.e., derived from noncancerous, nondiseased tissue). […] Whole kidneys were perfused with Wisconsin medium and kept on ice until they arrived at the laboratory, which was usually within 24 h of removal from the donor. All buffers were continuously bubbled with 95% O2/5% CO2 and were maintained at 37°C. Minced cortical pieces from whole kidneys were subjected to collagenase digestion for 60 min, after which the supernatant was filtered through a 70-μm mesh filter to remove tissue fragments, centrifuged at 150g for 7 min, and the pellet resuspended in Dulbecco’s Modified Eagle’s Medium: […] Approximately, 5–7 × 10^6 cells were obtained per 1 g of human kidney cortical tissue. […] Composition of this supplemented medium was based on earlier work establishing optimal conditions for primary culture of rat PT cells (Lash et al., [1995]). Basal medium was a 1:1 mixture of DMEM/F12. […] Cultures were grown at 37°C in a humidified incubator under an atmosphere of 95% air/5% CO2 at pH 7.4. Cultures were grown to approximately 80–90% confluence (generally 5–6 days) prior to experiments. Cells were harvested by either scraping the flasks with a Teflon scraper or by brief incubation with Cellstripper (Cellgro, Herndon, VA) (in Ca^2+- and Mg^2+-free Hanks’ buffer). KIM-1 (DY1750), NGAL (DY1757), and M-CSF (DY216) Duo-Set® ELISA kits were purchased from R&D systems (Minneapolis, MN). Sandwich-ELISA experiments were conducted following the manufacturer’s instructions with slight modifications. A 96-well microplate (MaxiSorp®, Nunc, Thermo Scientific, NSW, Australia) was coated with 100 μL of capture antibodies (diluted 1:200 in PBS) and incubated overnight. The plate was then washed twice with washing buffer (0.05% Tween 20 in PBS, pH 7.4) and blocked by adding 300 μL of blocking buffer (1% bovine serum albumin (BSA) in PBS) for 1 h at room temperature. After washing two times with PBS, 100 μL of samples (cell culture media or cell lysates) or standards were then added to each well and incubated for 2 h at room temperature. The biotinylated detection antibodies were then diluted in blocking buffer, added to each well and incubated for 2 h. Horseradish peroxidase (HRP)-labeled streptavidin (100 μL) was then added to bind to detection antibodies. To each well, 100 μL of substrate solution (1:1 mixture of H2O2 and tetramethylbenzidine) was added and incubated for 20 min before reaction termination with 50 μL of stop solution (2N H2SO4). The optical density of each well was measured at 450 nm using a POLARstar Omega plate reader (BMG Labtech). All assays were performed at least three times, with at least two technical replicates in each assay.

[3] = tested on: KIM-1; assay: KIM-1 protein ELISA in freshly isolated hPT cells; conditions: for KIM-1 protein increase in hPT cell lysate: 24 h treatment; for KIM-1 protein upregulation in hPT cells: high doses, within 24 h; for Upregulation of KIM-1 hPT P(L): protein levels in cell lysates, table title says 72 h time point
Experimental: as §1

[4] = tested on: NGAL; assay: NGAL protein ELISA in HK-2 cells; parameters: key: +: statistically significant increase; −: no significant increase; conditions: protein levels in culture medium; 72 h time point
Experimental: HK-2 cells (ATCC CRL-2190; Manassas, VA) were maintained in DMEM/F12 (Life Technologies; Sydney, NSW, Australia) supplemented with 5 μg/mL insulin, 5 μg/mL transferrin, 5 ng/mL sodium selenite (ITS; Roche; […] (passage 2) and culture kits were purchased from Lonza. […] were maintained in Renal Epithelial Cell BulletKitTM (CC-3190, Lonza) at 37°C and 5% CO2 atmosphere. Cells were passaged to 96-well plates with a density of 4000 cells/well. After 24 h culture, compounds with different concentration series were added into each well and incubated for 4, 24, 48, and 72 h. KIM-1 (DY1750), NGAL (DY1757), and M-CSF (DY216) Duo-Set® ELISA kits were purchased from R&D systems (Minneapolis, MN). Sandwich-ELISA experiments were conducted following the manufacturer's instructions with slight modifications. A 96-well microplate (MaxiSorp®, Nunc, Thermo Scientific, NSW, Australia) was coated with 100 μL of capture antibodies (diluted 1:200 in PBS) and incubated overnight. The plate was then washed twice with washing buffer (0.05% Tween 20 in PBS, pH 7.4) and blocked by adding 300 μL of blocking buffer (1% bovine serum albumin (BSA) in PBS) for 1 h at room temperature. After washing two times with PBS, 100 μL of samples (cell culture media or cell lysates) or standards were then added to each well and incubated for 2 h at room temperature. The biotinylated detection antibodies were then diluted in blocking buffer, added to each well and incubated for 2 h. Horseradish peroxidase (HRP)-labeled streptavidin (100 μL) was then added to bind to detection antibodies. To each well, 100 μL of substrate solution (1:1 mixture of H2O2 and tetramethylbenzidine) was added and incubated for 20 min before reaction termination with 50 μL of stop solution (2N H2SO4). The optical density of each well was measured at 450 nm using a POLARstar Omega plate reader (BMG Labtech). All assays were performed at least three times, with at least two technical replicates in each assay.

| Molecule | Upregulation of KIM-1 hRPTECs R [1] | NGAL protein upregulation in hPT cells [2] | Upregulation of NGAL hPT P(L) [2] | KIM-1 protein increase in hPT cell lysate ([3]; 100 μmol/L) [fold] | KIM-1 protein upregulation in hPT cells [3] | Upregulation of KIM-1 hPT P(L) [3] | Upregulation of NGAL HK-2 P [4] | KIM-1 protein increase in hPT cell lysate ([3]; 300 μmol/L) |
| --- | --- | --- | --- | --- | --- | --- | --- | --- |
| N.N.[Cl][Pt][Cl] [Cisplatin, cisplatin] | − | significant upregulation | >60-fold | 32 | significant upregulation | >32-fold | − |  |
| CNC(C)C1CCC(N)C(OC2C(N)CC(N)C(OC3OCC(C)(O)C(NC)C3O)C2O)O1 (stereo not drawn) [Gentamicin, gentamicin sulfate] | − | significant upregulation | >60-fold |  | significant upregulation | Greater than fivefold | − | fivefold |
| Colistin sulfate | − | significant upregulation | >60-fold |  | significant upregulation | >12-fold | − | 12 fold |

From PMC4492764, “Evaluation of biomarkers for in vitro prediction of drug-induced nephrotoxicity: comparison of HK-2, immortalized human proximal tubule epithelial, and primary cultures of human proximal tubular cells” (Pharmacology Research & Perspectives, 2015)
